Data from US8318743B2, “Medicament for the enhancement of cognitive function and neuroprotection” (Egis Gyogyszergyar Nyilvanosan Mukodo Reszvenytarsasag, priority 2006, dated 2012).
Marks after values point to notes of the source that are not given here.

Assays:
male Wistar rats = assay: passive avoidance test (step-through); assay type: in vivo, rat; conditions: for effect on memory in passive avoidance: 0.005 mg/kg p.o.
Experimental: The passive avoidance tests were carried out in male Wistar rats weighing 200 to 220 g (Charles River, Budapest). The experimental animals were kept in a room having a circadian light-dark periods of 12-12 hours. The light was switched on at 6:00 am. The relative humidity of the room was 60±10%.
The tests were carried out in a so-called step-through type apparatus with five channels which is suitable for testing of passive avoidance learning.
The apparatus comprises two plexiglass boxes of 20×20×16 cm. One of the boxes is clear, the other one is non-transparent, black-painted. There exists a separating wall between the boxes having an opening of 7.5×8 cm. The opening can be opened or closed by a computer-controlled shutter door. The transition of the rat from one box into the other is detected by two parallel photocell rows and the door is automatically shut after the transition of the animal. The floor of the black-painted box consists of stainless steel rods equipped with an electrical circuit suitable for the delivery of an electric shock. There is a 10-W bulb above the door at the light (transparent) side of the apparatus.
The tests were carried out on two subsequent days with a 24-hour time difference.
The first part of the test is the so-called acquisition period, wherein the animal is able to gain specific information characteristic to the situation (upon entry into the dark box, an electric shock is delivered). The second part of the test is the so-called retention period. In this stage, the ability of the animal to remember the information which was collected in the first part is tested (upon entry into the dark part, an electric shock will be delivered, therefore it is less traumatic to stay in the light compartment).
On the first day of the testing (acquisition period), the numbered animals are placed into the clear compartment of the apparatus while the shutter door is closed. After 30 seconds, the door is opened and the animal could freely enter the dark box. At the same time, the clock for the measurement of the transition latency was started. The transition latency is the period of time which elapses between the opening of the shutter door and the transition of the animal from the light compartment into the dark one. When the animal entered the dark box, the clock measuring the latency is stopped. 3 seconds after the entry into the dark compartment, an electric shock of 0.4 mA is delivered for 10 seconds to the animals in the form of a paw shock. Animals belonging to the absolute control groups were not delivered a paw shock. After the electric shock, the animals were immediately removed from the apparatus. A 180-sec period was available for the animals to enter the dark compartment. […] This is the essence of acquisition.
During the second-day test (retention) after 24 hours, the animals were placed into the apparatus again. The subsequent part of the procedure was identical to that performed on the first day with the only difference that except for one group, no electric shock was delivered to the animals. Similarly to the first day, 180 sec was provided for the animals to enter the dark box.
During the tests directed to the determination of the effect of 4-chloro-5-{2-[4-(6-fluoro-1,2-benz[d]isoxazole-3-yl)piperidin-1-yl]ethyl-amino}-2-methyl-3-(2H)pyridazinone of the Formula (I), the experimental animals were treated with the test substance and the reference substance or with vehicle (0.4% methylcellulose) on the second day, 60 minutes before placing the animals into the apparatus. The treatment was carried out orally at a dose of 0.005 mg/kg in a volume of 5 ml/kg.
The statistical evaluation was carried out with multiple way variance analysis. The differences between groups were analyzed by Duncan-test.

male gerbils = assay: global cerebral ischemia model by bilateral carotid artery occlusion, hippocampal CA1 neuronal damage; assay type: in vivo, gerbil; conditions: for proportion of the neuronal damage in CA1 region of the hippocampus / Effect %: 0.1 mg/kg ip.; for CA 1 lesion: 0.1 mg/kg ip. 45 minutes after surgery, average score on scale 0-6, four days after 3 min bilateral carotid occlusion; for Effect %: CA1 lesion score versus control animals
Experimental: The neuroprotective effect of 4-chloro-5-{2-[4-(6-fluoro-1,2-benz[d]isoxazole-3-yl)piperidin-1-yl]ethyl-amino}-2-methyl-3-(2H)pyridazinone of the Formula (I) was tested in gerbils by global cerebral ischemia model by bilateral occlusion of the carotid artery and in rats by focal cerebral ischemia model via the permanent occlusion of the central cerebral artery. Risperidone[3-(2-(4-(6-fluoro-1,2-benz[d]isoxazole-3-yl)-1-piperidinyl)ethyl)-6,7,8,9-tetrahydro-2-methyl-4H-pyrido[1,2-a]pyrimidin-4-one] of the Formula (II) was used as reference compound.
The tests in the global cerebral ischemia model were performed in male gerbils weighing 50-80 g. During surgery, the animals were anaesthetized with ether, and the carotid arteries were set free in the paratracheal region by a ventral incision in the central region. The carotid arteries were separated from the vagosympatic nerve-trunk and were occluded for 3 minutes using artery forceps and subsequently released. The body temperature of the animals was checked during surgery and was kept in the normal range using an infrared lamp (37.5±0.5° C.). The test substance 4-chloro-5-{2-[4-(6-fluoro-1,2-benz[d]isoxazole-3-yl)piperidin-1-yl]ethyl-amino}-2-methyl-3-(2H)pyridazinone of the Formula (I) and the reference substance risperidone of the Formula (II) were administered in a dose of 0.1 mg/kg intraperitoneally 45 minutes after surgery.
Four days after surgery, animals were anaesthetised using pentobarbital-Na (60 mg/kg ip., 10 ml/kg) and the brains were perfused with saline thorough the left ventricle. The perfusion was continued for an additional 30 minutes using fixative solution (200 ml/animal). The fixative solution contained 0.1% of glutaraldehyde, 4% of paraformaldehyde and 0.2% of picric acid in 0.1 M phosphate buffer (pH 7.4). After perfusion, the brains were removed from the skulls and were stored in the above-mentioned fixative solution for at least one week at 4° C. in a refrigerator.
The cerebral part containing the dorsal hippocampus has been dissected into 60-μm thick coronal sections using a freezing microtome. The sections were washed four times by shaking for 30 minutes in 0.1 M phosphate buffer (pH 7.4) during which the cerebral sections were floating in the washing solution. Subsequently the cerebral sections were stained using silver impregnation. The staining by the silver impregnation method comprises (a) immersing the sample into a preparatory solution twice for 5 minutes (the preparatory solution comprises aqueous 2% sodium hydroxide and 0.875% ammonium hydroxide solution); (b) immersing the sample into the impregnating solution for 10 minutes (solution of 0.875% ammonium hydroxide and 0.5% silver nitrate in water), (c) washing the sample twice for 2 minutes and finally for one minute in the solution of 0.5% of sodium carbonate and 0.01% ammonium nitrate in aqueous 29.1% ethanol); (d) development for one minute by immersing the section into a development solution (1-1.5% formaldehyde and 0.01% ammonium nitrate in 9.9% ethanol), (e) fixation three times for three minutes each in 0.5% acetic acid solution. The stained cerebral sections were placed into 0.1 M phosphate buffer (pH 7.4) and subsequently chromic gelatine, mounted on slides and dehydrated (dried), treated with xylene for 10 minutes and the cover plates were attached using DPX histological adhesive (Fluka).
The bilateral neuronal damage in the CAl region of the hippocampus have been evaluated on a six-score scale as follows: 0—no damage observed; 1—0-10% neuronal damage; 2—10-30% neuronal damage; 3—30-50% neuronal damage; 4—50-70% neuronal damage; 5—70-90% neuronal damage; 6—90-100% neuronal damage. The average scores measured in the treated group were expressed in the percentage of the average scores observed in the case of the control animals. The statistical evaluation was carried out by non-parametric Mann-Whitney U-test.

rats = assay: object recognition test; assay type: in vivo, rat
Excerpt: The object recognition test in rats is based on the observation that when animals are encountered with unknown environment, they scour around and discover the available area. They act similarly in case of unknown objects arranged within their area.
In the present experimental arrangement, one day prior to the actual testing day, animals are placed in a box where they have two minutes to get acquainted with the surroundings. On the first day of the experiment, two identical objects (in the present arrangement, a plastic rinse bottle and a glass bottle) are placed in the box and the length of the period is determined during which the animals spend time while examining the two objects. The length of test period is 4-5 minutes. The difference between the length of the time periods spent with the examination of each object is the so-called discrimination index.
On the second day (24 hours after the first testing period) of the experiment, two different objects are placed in the box, among which one is known for the animals and the other is unknown.
In the case when a memory-enhancing drug is administered to the animals on the first day (e.g. orally, 60 minutes prior to testing), the animals are able to recall the already known objects better and the discrimination index is increased in favour of the unknown object.

[1] = 0.4 mA/10 sec electric shock + treatment 0.005 mg/kg p.o. 60 minutes before test
[2] = treatment 0.005 mg/kg p.o. without electric shock

Row | Structure (SMILES) | effect on memory in passive avoidance (male Wistar rats) | Transition latency First Day sec ± SE (male Wistar rats; [1]) | Transition latency First Day sec ± SE (male Wistar rats; [2]) [s] | proportion of the neuronal damage in CA1 region of the hippocampus (male gerbils) | CA 1 lesion (male gerbils) | Effect % (male gerbils) [%] | memory functions in object recognition (rats; 0.01 mg/kg) | Discrimination index(s) Day 1 (rats; 0.01 mg/kg p.o., Day 1) [s] | Discrimination index(s) Day 2 (rats; 0.01 mg/kg p.o., Day 2 (24 hours after first testing)) [s]
1 | Cc1nc2n(c(=O)c1CCN1CCC(c3noc4cc(F)ccc34)CC1)CCCC2 [Risperidone, 3-(2-(4-(6-fluoro-1,2-benz[d]isoxazole-3-yl)-1-piperidinyl)-ethyl)-6,7,8,9-tetrahydro-2-methyl-4H-pyrido[1,2-a]pyrimidin-4-one, reference compound] | did not exhibit any effect | 85.5 ± 22.0 s | 36.1 ± 15.9 | ineffective | 4.67 | −2 | – | – | –
2 | Cn1ncc(NCCN2CCC(c3noc4cc(F)ccc34)CC2)c(Cl)c1=O [Formula (I), 4-chloro-5-{2-[4-(6-fluoro-1,2-benz[d]isoxazole-3-yl)piperidine-1-yl]ethyl-amino}-2-methyl-3-(2H)pyridazinone] | significantly improved the memory | 155.9 ± 15.5^++ sec | 21.2 ± 8.8 | significantly decreased | 2.80** | −46 | significantly enhanced | 0.4 ± 0.8 | 10.9 ± 1.4
